# Patent US20060222628A1, “Gallium complexes of 3-hydroxy-4-pyrones to treat infection by intracellular prokaryotes and DNA viruses” (priority 1999, published 2006)
# What was measured:
# HIV = assay: Clinical evaluation for prevention of EBV or KSV neoplasms in HIV patients: HIV; format: in vivo; details: neoplasm prevention study; MacSynergy II
# From the text: (§1) Both EBV and KSV cause neoplasms, with both causing lymphomas and KSV ([…]) along with HHV-7, possibly in concert with HHV-6 associated with the pathogenesis of Kaposi Sarcoma. Most humans carry all these viruses. A HIV population could be studied without determining whether any of the patients are seropositive or culturable for these pathogens, or preferably a group of HIV patients who are seropositive or culture positive for both EBV and KSV can be identified. Applying the methods of Example 12 with additional guidance from Schneider et al. (2000), supra, yields a protocol for evaluating the contribution of the gallium compounds of the invention in prevention of opportunistic neoplasms caused by the herpes viruses with combination antiviral therapy.
# Using essentially the same protocol as Example 12, but with an HIV infected patient population that is seropositive or culture positive for both EBV and KSV and substituting the specific assays such as PCR, serodetection for the EBV and KSV viruses, the role of gallium as a combination agent in preventing the neoplasms caused by members of the herpesvirus family in HIV disease can be evaluated. The subpopulations are divided according to CD4 counts as in Example 12. Each subpopulation's first group is treated in addition to the foscarnet with interferon-alpha. […]
# transferrin (Tf) = target: T1, transferrin (Tf) (Homo sapiens, UniProt P02787); details: oral, versus intravenous gallium nitrate; cited from earlier work
# T1 construct: host or cells: circulating (blood plasma) transferrin of the dosed subject
# T1 sequence (P02787 20-698, species assumed): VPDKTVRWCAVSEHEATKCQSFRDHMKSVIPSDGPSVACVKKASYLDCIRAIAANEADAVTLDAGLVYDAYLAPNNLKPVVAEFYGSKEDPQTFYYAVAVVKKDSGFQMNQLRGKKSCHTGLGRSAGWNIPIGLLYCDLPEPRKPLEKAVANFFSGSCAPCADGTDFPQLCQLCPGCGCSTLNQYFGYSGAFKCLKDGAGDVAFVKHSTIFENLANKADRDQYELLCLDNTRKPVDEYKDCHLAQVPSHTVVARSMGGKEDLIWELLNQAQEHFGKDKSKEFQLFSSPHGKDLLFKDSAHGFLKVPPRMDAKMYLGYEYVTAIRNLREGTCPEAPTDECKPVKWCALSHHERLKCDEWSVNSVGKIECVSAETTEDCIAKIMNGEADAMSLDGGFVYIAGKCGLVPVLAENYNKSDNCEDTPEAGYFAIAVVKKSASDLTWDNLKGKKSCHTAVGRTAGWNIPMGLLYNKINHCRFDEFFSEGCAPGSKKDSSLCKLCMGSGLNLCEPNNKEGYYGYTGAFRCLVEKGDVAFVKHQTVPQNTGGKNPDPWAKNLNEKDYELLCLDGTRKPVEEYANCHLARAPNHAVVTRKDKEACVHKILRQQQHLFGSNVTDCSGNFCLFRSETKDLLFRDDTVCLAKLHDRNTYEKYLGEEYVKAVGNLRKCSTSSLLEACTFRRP
# [1] = in vivo
# From the text: Gallium is absorbed very poorly when orally administered as salts such as the chloride or nitrate (Collery et al. (1989), “Clinical pharmacology of gallium chloride after oral administration in lung cancer patients,” Anticancer Res. 9:353-356; Ho et al. […] J.
# hepatitis B = assay: Clinical evaluation in co-infection by HIV and hepatitis B: hepatitis B; format: in vivo, human
# Procedure: Gallium maltolate is evaluated clinically for efficacy in treating hepatitis B co-infection of a HIV-1 patients. In addition to the methods used in Example 5 for evaluating the HIV disease, the methods employed in the clinical studies discussed in the following references are used in the evaluation: Yao et al. (1997), “Treatment of Chronic Hepatitis B: New Antiviral Therapies,” Curr. Gastroenterol. Rep. 1(1):20-26; Hoofnagle et al. (1997), “New therapies for chronic hepatitis B,” supra.
# Patients are treated once per day with gelatin capsules containing gallium maltolate. The population of patients with hepatitis B and HIV infection are first divided into two subpopulations groups based on CD4+ counts (above 350/mm^3 and below 350/mm^3). […]
# In each subpopulation, the first group's four subgroups from each subpopulation (above 350/mm^3 and below 350/mm^3) additionally receive the gallium maltolate dose together with 10 million IU interferon by injection once per day. […] Patients are monitored for HIV disease precisely as described in Example 5. Patients are also medically monitored for liver disease, including liver function testing and examination for medical symptoms of hepatitis B infection throughout the study, with careful attention to the possibility that the drugs themselves may cause some liver disease and elevate the liver function tests. […]
# EBV and KSV = assay: Clinical evaluation for prevention of EBV or KSV neoplasms in HIV patients: neoplasia; format: in vivo, human
# From the text: as §1
# Using essentially the same protocol as Example 12, but with an HIV infected patient population that is seropositive or culture positive for both EBV and KSV and substituting the specific assays such as PCR, serodetection for the EBV and KSV viruses, the role of gallium as a combination agent in preventing the neoplasms caused by members of the herpesvirus family in HIV disease can be evaluated. The subpopulations are divided according to CD4 counts as in Example 12. Each subpopulation's first group is treated in addition to the foscarnet with interferon-alpha. Each subpopulation's second group is treated in addition to the ganciclovir with the same doses of foscarnet and interferon-alpha as the first group. The dosages of the foscarnet and are as in Example 12, as are the dosages for the gallium maltolate for each groups four subgroups. Thus within each subpopulation, gallium plus foscarnet plus traditional HAART is compared to gallium plus foscarnet plus traditional HAART plus ganciclovir. An all oral regimen would be preferable but success would be unlikely. The dosage level for the interferon-alpha used is that used for treating Kaposi Sarcoma (20 million IU every day by injection), a dose that may require adjustment for tolerance in some patients. […]
structure (smiles),measurement,setting,value
"Cc1occc(=O)c1[O-].Cc1occc(=O)c1[O-].Cc1occc(=O)c1[O-].[Ga+3] [gallium maltolate, tris(3-hydroxy-2-methyl-4H-pyran-4-onato)gallium]",Synergy with the HAART regime on HIV infection,HIV,synergistic with the HAART regime in their effects upon the HIV infection
same,Tf binding of absorbed gallium and tissue distribution,transferrin (Tf),higher Tf binding of absorbed gallium and therefore better tissue distribution than intravenous gallium nitrate
same,Oral gallium absorption relative to gallium salts,[1],roughly ten times higher than from gallium salts
same,Efficacy in treating hepatitis B infection in combination,"hepatitis B; HIV co-infected patients on HAART, with interferon-alpha or lamuvidine",effective in combination with interferon and interferon plus nucleoside analogs
same,Synergy in treating hepatitis B infection,hepatitis B; with interferon and interferon plus nucleoside analogs,synergistic with both
same,Efficacy in preventing herpesvirus neoplasia in combination,"EBV and KSV; HIV infected patients on HAART, with foscarnet, interferon-alpha, ganciclovir","effective in combination with foscarnet, interferon and ganciclovir"
same,Prevention of opportunistic herpesvirus associated neoplasms,"EBV and KSV; combined with foscarnet, ganciclovir and interferon, high CD4+ group",producing the best results
same,Synergy in preventing herpesvirus neoplasia,"EBV and KSV; with foscarnet, interferon and ganciclovir",synergistic with all
